Experimental findings from patent publication US20240208961A1, “EIF4E INHIBITORS AND USES THEREOF” (PIC Therapeutics, Inc., priority 2022, published 2024) are described below.

Structures are written as SMILES.

Test [1] has as its system ZR-75-1. The experiment in a line: ZR-75-1 compound screening cell viability, Alamar Blue (Example 6). Format: cell-based. Particulars: Homo sapiens, 96 h, ZR-75-1 cells, Media 1% FBS, read-out: ZR-75-1 Cell Viability, 4 Days: IC50. (In general: Resazurin is reduced to fluorescent resorufin, in cell work by metabolically active cells.)
The subject of test [2] is ZR-75-1. Description: Cell viability assay, adherent cell line, 5 day Alamar Blue (Example 8): ZR-75-1. The note with it: Homo sapiens, 120 h, ZR-75-1, Breast Cancer Cell Viability. Format: cell-based. The method, then:
(§1) Cell viability assays were performed on certain compounds of the disclosure, according to the following procedure.
(§2) Cell line specific media conditions used:
(§3) The procedure for adherent cell line compound screening was as follows:
(§4) • Cells were seeded in 96-well cell culture treated tissue culture plates: ZR-75-1, NIHOVCAR3, T47D, and LOVO cells 4000 cells/well; and HPAFII 3000 cell/well
(§5) Day 3: Compound Dilution and Dosing
(§6) • 5-fold serial dilution (8 point) of each compound in DMSO 0-25 mM in compound storage plates was prepared (stored at −80° C. if not to be used immediately). • Cells were rinsed with 1% FBS Media (appropriate to cell line as described above) and replaced with 87.5 μL media prior to dosing. HPAFII was screened in normal 10% FBS Media. • DMSO compound dilution series was diluted in 1% FBS media (appropriate to cell line as described above)—2 μL in 248 μL to give an 8× final concentration. • Cells were dosed 12.5 μL/well in triplicate to give final dose curved on cells 0-25 μM. • Media blank 100 μL/well×8 was set up. • All plates were incubated at 37° C.
(§7) Day 8: 5 Day Viability Assay
(§8) • Alamar Blue viability reagent was added (10 μL per well) and incubated for 3 hours at 37° C. prior to fluorescence detection (Ex560 nm/Em590 nm) on a Varioskan Lux multimode plate reader.
(§9) Results from cell viability assays are summarized in Table 23, wherein A represents IC50≤1 μM; B represents 1 μM<IC50≤8 μM; and C represents IC50>8 μM. Blank cells indicate that the compound was not tested in a particular assay.

In a further test the target is T1, Human eIF4E (aa 28-217) (Homo sapiens, UniProt P06730).
T1 construct: Human eIF4E (aa 28-217) with a C-terminal His-tag; made in house
Description: 4G-eIF4E protein-based assay (TR-FRET, biotin labeled 4G2 peptide). Format: binding. The method, then: Human eIF4E ([…]) with a C-terminal His-tag was expressed in E. coli in inclusion bodies. The protein was solubilized with 8 M urea and purified under denaturing conditions using nickel-charged HisTrap HP columns (GE Healthcare). The purified protein was then refolded by diluting in 20 mM Hepes pH 7.0, 0.5 M NaCl, 1 mM DTT, […], 0.5 M arginine plus 6 M urea, and then dialyzing overnight into the same buffer without the urea. The protein was further dialyzed into 20 mM Hepes, pH 6.5, 50 mM NaCl, 1 mM EDTA, 1 mM DTT, and concentrated using Hitrap SP sepharose FF columns (GE Healthcare). The concentrated protein was dialyzed into 20 mM Hepes, pH 7.0, 0.5M NaCl, 5 mM DTT and […], and stored at -80° C. until use. Test compounds (3.43 mM stock in DMSO) were diluted 2-fold in series in DMSO (10 concentration points). Compound solutions (1.2 μL/well) were added into black 384-well polypropylene microplates (Matrix, Thermal Scientific). […] The samples were incubated at room temperature (20-23° C.) for 4 hours. Biotin labeled 4G2 peptide ([…])-NH2, 1.75 μM stock in DMSO) was diluted to 0.13 μM in Assay Buffer (without DTT) and 5 μL/well was added. The samples were incubated at room temperature for 20 min. Five microliters per well of 15 nM Eu-streptavidin (Eu-SA, Perkin Elmer) and 96 nM Allophycocyanin (APC)-anti His antibody (Columbia Biosciences) in Assay Buffer (without DTT) were then added and the samples were incubated at room temperature for 20 min. Assay signals were monitored by reading excitation at 340 nm and emission fluorescence at 615 nm and 665 nm on an Envision reader (Perkin Elmer). Normalized TR-FRET (time-resolved fluorescence resonance energy transfer) assay signal (Rn) was calculated by the formula: […] C=(Ac-Ba)/(Dc-Bd) • Where Ac is the fluorescence intensity of 1.5 nM Eu-SA in the assay buffer at 665 nm. IC50 values were calculated using xLFit program (IDBS).
(In general: Time-resolved FRET reads energy transfer from a long-lived donor to a nearby acceptor.)

The next test deals with HPAFII. The experiment in a line: Cell viability assay, adherent cell line, 5 day Alamar Blue (Example 8): HPAFII. Particulars: Homo sapiens, HPAF-II, 120 h, Pancreatic Cancer Cell. Format: cell-based. On the procedure: as §1, §2, §3, §4, §5, §6, §7, §8, §9
The next test concerns T47D. Description: Cell viability assay, adherent cell line, 5 day Alamar Blue (Example 8): T47D. Particulars: Homo sapiens, 120 h, Breast Cancer Cell Viability. Format: cell-based. The method, then: as §1, §2, §3, §4, §5, §6, §7, §8, §9
The subject of another test is MM.1S. Description: Cell viability assay, suspension cell line, 5 day Alamar Blue (Example 8): MM.1S. The note with it: Homo sapiens, MM1.S, 120 h, Multiple Myeloma (Steroid Sensitive) Cancer Cell. Format: cell-based. The method, then:
as §1, §2
(§10) The procedure for suspension cell line compound screening was as follows:
(§11) Day 1: Cell Seeding and Compound Dosing
as §6, with “• Cells were seeded 2×10^5 in 96-well cell culture treated tissue culture plates: 87.5 μL/well; MM.1 S, MM,1R, NCIH510A. • 5-fold” for “• 5-fold”, “to dosing. • DMSO” for “to dosing. HPAFII was screened in normal 10% FBS Media. • DMSO”
(§12) Day 6: 5 Day Viability Assay
as §8, §9

The next test deals with MM.1R. Description: Cell viability assay, suspension cell line, 5 day Alamar Blue (Example 8): MM.1R. Format: cell-based. Particulars: 120 h, Multiple Myeloma (Steroid Resistant) Cancer Cell. The method, then:
as §1, §2, §10, §11
as §6, with “• Cells were seeded 2×10^5 in 96-well cell culture treated tissue culture plates: 87.5 μL/well; MM.1 S, MM,1R, NCIH510A. • 5-fold” for “• 5-fold”, “to dosing. • DMSO” for “to dosing. HPAFII was screened in normal 10% FBS Media. • DMSO”
as §12, §8, §9

For a further test, the system named is NCIH510A. The experiment in a line: Cell viability assay, suspension cell line, 5 day Alamar Blue (Example 8): NCIH510A. Format: cell-based. The note with it: Homo sapiens, NCI-H510A, 120 h, Small Cell Lung Cancer Cell Line. The method, then: as §1, §2, §10, §11
as §6, with “• Cells were seeded 2×10^5 in 96-well cell culture treated tissue culture plates: 87.5 μL/well; MM.1 S, MM,1R, NCIH510A. • 5-fold” for “• 5-fold”, “to dosing. • DMSO” for “to dosing. HPAFII was screened in normal 10% FBS Media. • DMSO”
as §12, §8, §9

In another test the test system is NIHOVCAR3. Description: Cell viability assay, adherent cell line, 5 day Alamar Blue (Example 8): NIHOVCAR3. Particulars: Homo sapiens, OVCAR-3, 120 h, OVCAR3, Ovarian Cancer Cell. Format: cell-based. On the procedure:
as §1, §2, §3, §4, §5, §6, §7, §8, §9

A further test deals with LoVo. The experiment in a line: Cell viability assay, adherent cell line, 5 day Alamar Blue (Example 8): LoVo. Format: cell-based. Particulars: Homo sapiens, 120 h, Colorectal Cancer Cell Viability. The method, then:
as §1, §2, §3, §4, §5, §6, §7, §8, §9

T1 sequence (P06730 28-217): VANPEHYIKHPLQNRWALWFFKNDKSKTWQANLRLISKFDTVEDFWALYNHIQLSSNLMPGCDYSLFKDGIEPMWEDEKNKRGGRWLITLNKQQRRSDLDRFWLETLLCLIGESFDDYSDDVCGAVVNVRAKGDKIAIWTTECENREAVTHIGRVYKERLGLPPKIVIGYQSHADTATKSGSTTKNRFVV

The IC50 is the concentration needed to halve the response being measured. For the molecule `CC(C)c1cnc(Nc2ncc(-c3cccs3)cc2C(=O)O)s1` [Compound I-16], the IC50 in the test on ZR-75-1 [1] and in the test on ZR-75-1 [2] was over 8 µM in each case.
Consider `Cc1nc(Nc2ncc(-c3cccs3)cc2C(=O)O)sc1CC(C)C` [Compound I-17], for which the IC50 with ZR-75-1 [1] and in the test with ZR-75-1 [2] was over 8 µM throughout.
Turning to `CC(C)Cc1cnc(Nc2ncc(-c3cccs3)cc2C(=O)O)s1` [Compound I-18], the IC50 in the test with ZR-75-1 [1] and with ZR-75-1 [2] was 1 to 8 µM each time.
Take `CC(C)Cc1sc(Nc2ncc(-c3cccs3)cc2C(=O)O)nc1C(F)(F)F` [Compound I-22]: the IC50 with ZR-75-1 [1] and in the test on ZR-75-1 [2] was 1 to 8 µM in each case.
Take `Cc1ccc(-c2cnc(Nc3nc(C(C)(C)C)c(CC(C)C)s3)c(C(=O)O)c2)s1` [Compound I-24]: the IC50 was at most 0.5 µM on Human eIF4E (aa 28-217); 1 to 8 µM with ZR-75-1 [2]; over 8 µM in the test with HPAFII; 1 to 8 µM in the test on T47D; over 8 µM in the test on MM.1S; over 8 µM in the test with MM.1R. The half-maximal inhibitory concentration (IC50) in the test on NCIH510A, with NIHOVCAR3 and in the test with LoVo was 1 to 8 µM each time.
For the molecule `CC(C)c1sc(Nc2ncc(-c3cccs3)cc2C(=O)O)nc1C(C)(C)C` [Compound I-25], the half-inhibitory concentration (IC50) in the test on ZR-75-1 [2] was 1 to 8 µM.
On the same count and under the same terms, then `CC(C)Cc1sc(Nc2ncc(-c3cccs3)cc2C(=O)O)nc1C(C)C` [Compound I-26], with at most 1 µM.
Take `CC(C)Cc1sc(Nc2ncc(-c3cccs3)cc2C(=O)O)nc1C1CCC1` [Compound I-28]: the IC50 against Human eIF4E (aa 28-217) is 0.5 to 1 µM; in the test with ZR-75-1 [2], at most 1 µM; in the test on HPAFII it was at most 1 µM; in the test on T47D it was at most 1 µM; in the test with MM.1S, at most 1 µM; in the test with MM.1R, at most 1 µM. Also, the IC50 in the test on NCIH510A, with NIHOVCAR3 and in the test on LoVo was at most 1 µM throughout.
Take `Cc1ccc(-c2cnc(Nc3nc(C4CCC(F)(F)CC4)c(CC(C)C)s3)c(C(=O)O)c2)s1` [Compound I-30]: the IC50 against Human eIF4E (aa 28-217) was 0.5 to 1 µM; in the test with ZR-75-1 [2], 1 to 8 µM; with HPAFII, over 8 µM; in the test on T47D, 1 to 8 µM; with MM.1S, 1 to 8 µM; in the test on MM.1R, 1 to 8 µM. Also, the IC50 in the test on NCIH510A, with NIHOVCAR3 and in the test with LoVo was 1 to 8 µM each time.
`CC(C)c1sc(Nc2ncc(-c3cccs3)cc2C(=O)O)nc1C1CCC(F)(F)CC1` [Compound I-31] displayed an IC50 with ZR-75-1 [2] of 1 to 8 µM.
